Test results from US7393812B2, “Methylidene mevalonates and their use as herbicides” (Dow AgroSciences LLC, priority 2004, dated 2008).

What was measured:
Assay type in all cases: in vivo
[1] = test system: velvetleaf (Abutilon theophrasti, ABUTH); assay: General herbicidal evaluation, preemergence; settings: 16 days after treatment
Source text: Applications of methylidene mevalonate were made either to the foliage (postemergence) or soil (preemergence). Seeds of sunflower (Helianthus annus, HELAN), morningglory (Ipomoea hederacea, IPOHE) velvetleaf (Abutilon theophrasti, ABUTH), pigweed (Amaranthus spp., AMARE), barnyardgrass (Echinochloa crusgalli, ECHCG), giant foxtail (Setaria faberi, SETFA), wild oats (Avena fatua, AVEFA), and blackgrass (Alopecurus myosuroides, ALOMY) were planted in mineral soil (sandy clay loam, 51% sand, 26% silt, 23% clay, 2.8% O.M., pH 7.8) and Metro-mix (Bulk Sak, Inc., Malvern, Ark., USA) for preemergence and postemergence treatments, respectively. Pots receiving preemergence treatments were watered immediately following application. Prior to postemergence treatment, plants were grown in the greenhouse (16 h photoperiod, 27 C) and thinned to a density of 2 to 15 plants pot^−1, depending on species. At the time of postemergence applications, plants were 8-12 days old, 3 to 10 cm in height, and in the 1- to 3-true-leaf stage. Natural light in the greenhouse was supplemented with metal halide lights that provided an average photosynthetic photon flux of 500 μmol m^−2s^−1.
A sample of sodium methylidene mevalonate was dissolved in 4 mL of distilled water followed by 10 mL of formulation stock “B” (200 mL isopropanol, 20 mL crop oil concentrate, 0.4 g Triton X-155 [Sigma Chemical Co., St. Louis, Mo. 62718], and 78 mL water). This was followed by three 1:1 (v/v) serial dilutions using formulation stock “C” (100 mL isopropanol, 10 mL crop oil concentrate, 0.2 g Triton X-155, 390 mL water, 485 mL acetone and 15 mL DMSO).
Treatments were made at four different doses (4000, 2000, 1000, and 500 g ha^−1). For preemergence treatments, 1.75 mL of spray solution were applied to the soil surface in each pot using a glass Cornwall syringe fitted with a Teejet SS8001E flat-fan nozzle (Spraying Systems Co., Wheaton, Ill. 60189-7900). For postemergence applications, the foliage of the test plants was sprayed using a DeVilbiss atomizer (DeVilbiss Health Car, Inc., Somerset, Pa. 15501) driven by compressed air at a pressure of 22 kPa. Untreated controls were included.
Pots were placed in the greenhouse following compound application. Pots from postemergence and preemergence were sub-irrigated and top-watered, respectively, as needed for the duration of the test. Visual injury ratings were taken 9 and 16 days after treatment for postemergence and preemergence applications, respectively, on a 0 to 100 scale where 0 represents no injury and 100 represents complete necrosis.

[2] = test system: yellow nutsedge (Cyperus esculentus, CYPES); assay: Post-emergent evaluation; settings: after 2 weeks
Protocol: (§1) Seeds of the desired test plant species were planted in Grace-Sierra MetroMix® 306 planting mixture, which typically has a pH of 6.0 to 6.8 and an organic matter content of about 30 percent, in plastic pots with a surface area of 64 square centimeters. When required to ensure good germination and healthy plants, a fungicide treatment and/or other chemical or physical treatment was applied. The plants were grown for 7-21 days in a greenhouse with an approximate 15 hr photoperiod which was maintained at about 23-29° C. during the day and 22-28° C. during the night. Nutrients and water were added on a regular basis and supplemental lighting was provided with overhead metal halide 1000-Watt lamps as necessary. The plants were employed for testing when they reached the first or second true leaf stage.
(§2) A weighed amount, determined by the highest rate to be tested, of each test compound was placed in a 20 mL glass vial and was dissolved in 4 mL of a 97:3 v/v (volume/volume) mixture of acetone and dimethyl sulfoxide (DMSO) to obtain concentrated stock solutions. […] The concentrated stock solutions obtained were diluted with an aqueous mixture containing acetone, water, isopropyl alcohol, DMSO, Atplus 411F crop oil concentrate, and Triton X-155 surfactant in a 48.5:39:10:1.5:1.0:0.02 v/v ratio to obtain spray solutions of known concentration. The solutions containing the highest concentration to be tested were prepared by diluting 2 mL aliquots of the stock solution with 13 mL of the mixture and lower concentrations were prepared by serial dilution of the stock solution. Approximately 1.5 mL aliquots of each solution of known concentration were sprayed evenly onto each of the test plant pots using a DeVilbiss atomizer driven by compressed air pressure of 2 to 4 psi ([…]) to obtain thorough coverage of each plant. Control plants were sprayed in the same manner with the aqueous mixture. In this test an application rate of 1 ppm results in the application of approximately 1 g/Ha.
(§3) The treated plants and control plants were placed in a greenhouse as described above and watered by sub-irrigation to prevent wash-off of the test compounds. After 2 weeks the condition of the test plants as compared with that of the untreated plants was determined visually and scored on a scale of 0 to 100 percent where 0 corresponds to no injury and 100 corresponds to complete kill. Species abbreviations as described for Table I with the following additions: soybean (Glycine max, GLXMA), rape (Brassica napus, BRSNN), chickweed (Stellaria media, STEME), cocklebur (Xanthium strumarium XANST), lambsquarters (Chenopodium album, CHEAL), violet (Viola tricolor, VIOTR), bindweed (Polygonum convolvulus, POLCO), spurge (Euphorbia heterophylla, EPHHL), Canada thistle (Cirsium arvense, CIRAR), corn (Zea mays, ZEAMX), rice (Oryza sativa, ORYSA), wheat (Triticum aestivum, TRZAS), crabgrass (Digitaria sanguinalis, DIGSA), shattercane (Sorghum vulgare, SORVU) and yellow nutsedge (Cyperus esculentus, CYPES).
(§4) By applying the well-accepted probit analysis as described by J. Berkson in Journal of the American Statistical […], 48, 565 (1953) and by D. Finney in “Probit Analysis” Cambridge University Press (1952), similar data can be used to calculate GR80 values, which are defined as growth reduction factors that correspond to the effective dose of herbicide required to kill or control 80 percent of a target plant. Species abbreviations are as previously defined.

[3] = test system: crabgrass (Digitaria sanguinalis, DIGSA); assay: Post-emergent evaluation; settings: after 2 weeks
Protocol: as §1, §2, §3, §4

Q: What does the source list for `C=C(CO)C(C)(O)CC(=O)O` (centres unmarked) [methylidene mevalonate, 3-hydroxy-4-(hydroxymethyl)-3-methylpent-4-enoic acid]?
A: Visual Injury (%) ([1]; 0.5 kg ha^−1, ABUTH): 0%; Visual Injury (%) ([1]; 1.0 kg ha^−1, ABUTH): 0%; Visual Injury (%) ([1]; 2.0 kg ha^−1, ABUTH): 20%; Visual Injury (%) ([1]; 4.0 kg ha^−1, ABUTH): 30%; Postemergent % Control ([2]; spray concentration 125 ppm): 30%; Postemergent % Control ([2]; spray concentration 250 ppm): 70%; Postemergent % Control ([2]; spray concentration 500 ppm): 90%; Postemergent % Control ([2]; spray concentration 1000 ppm): 95%; Postemergent % Control ([2]; spray concentration 2000 ppm): 95%; Postemergent % Control ([3]; spray concentration 125 ppm): 0%; Postemergent % Control ([3]; spray concentration 250 ppm): 10%; Postemergent % Control ([3]; spray concentration 500 ppm): 50%; Postemergent % Control ([3]; spray concentration 1000 ppm): 70%; Postemergent % Control ([3]; spray concentration 2000 ppm): 80%
